# Measured values: publication PMC5421785, “Citrullination only infrequently impacts peptide binding to HLA class II MHC” (PLoS ONE, 2017)
# Read-outs that look alike come from different tables or passages of the source. Square brackets hold non-standard residues; d marks the D form. Peptide text beside a SMILES is read from it. Cit = NC(=O)NCCC[C@H](N)C(=O)O
# Columns and labels:
# [1] = biological target: T1, HLA-DRB1*01:01 (Homo sapiens, UniProt P01903+P01911, A100R/D57E/F55L/F60I/F76Y/I96L/L162R/M171V/P40L/Q125E/R42F/V115G/Y59C); test: HLA class II peptide binding, inhibition of radiolabeled peptide binding to purified MHC
# T1 construct: EBV transformed homozygous cell lines were used as sources of MHC molecules; endogenous in cells; host or cells: EBV transformed homozygous cell lines
# [2] = biological target: T2, HLA-DRB1*04:01 (Homo sapiens, UniProt P01903+P01911, A100K/A169T/F76Y/I96L/K127E/L162R/M171V/N62H/P40V/Q125Y/R42H/S133A/S149N/S66Y/V115G/V209L/W38E); test: as above
# T2 construct: EBV transformed homozygous cell lines were used as sources of MHC molecules; endogenous in cells; host or cells: EBV transformed homozygous cell lines
# [3] = citrullinated 15-mer (X), purified MHC, inhibition of radiolabeled peptide binding, dash = IC50 >40,000 nM, read-out: DRB1*01:01 binding capacity, Cit peptide (IC50 nM)
# [4] = citrullinated 15-mer (X), purified MHC, inhibition of radiolabeled peptide binding, dash = IC50 >40,000 nM, read-out: DRB1*04:01 binding capacity, Cit peptide (IC50 nM)
# [5] = read-out: DRB1*01:01 binding capacity, WT peptide (IC50 nM)
# [6] = read-out: DRB1*04:01 binding capacity, WT peptide (IC50 nM)
Compound,"IC50 [1, 3] [nM]","IC50 [2, 4] [nM]","IC50 [1, 5] [nM]","IC50 [2, 6] [nM]"
CSCC[C@H](NC(=O)[C@H](CCCNC(N)=O)NC(=O)[C@H](CCCNC(=N)N)NC(=O)[C@H](Cc1ccc(O)cc1)NC(=O)[C@H](CO)NC(=O)[C@H](CO)NC(=O)[C@H](CO)NC(=O)[C@H](CO)NC(=O)[C@@H](N)C(C)C)C(=O)N[C@@H](Cc1ccccc1)C(=O)NCC(=O)NCC(=O)N1CCC[C@H]1C(=O)NCC(=O)N[C@H](C(=O)O)[C@@H](C)O [VSSSSYRXMFGGPGT] (H-VSSSSYR[Cit]MFGGPGT-OH),60,974,,
CSCC[C@H](NC(=O)[C@H](CCCNC(=N)N)NC(=O)[C@H](CCCNC(N)=O)NC(=O)[C@H](Cc1ccc(O)cc1)NC(=O)[C@H](CO)NC(=O)[C@H](CO)NC(=O)[C@H](CO)NC(=O)[C@H](CO)NC(=O)[C@@H](N)C(C)C)C(=O)N[C@@H](Cc1ccccc1)C(=O)NCC(=O)NCC(=O)N1CCC[C@H]1C(=O)NCC(=O)N[C@H](C(=O)O)[C@@H](C)O [VSSSSYXRMFGGPGT] (H-VSSSSY[Cit]RMFGGPGT-OH),37,906,,
CC(C)C[C@H](NC(=O)[C@H](C)NC(=O)[C@H](CO)NC(=O)CNC(=O)[C@H](CC(C)C)NC(=O)[C@H](CO)NC(=O)[C@H](Cc1ccc(O)cc1)NC(=O)[C@@H](NC(=O)[C@H](CCCNC(=N)N)NC(=O)[C@@H](NC(=O)[C@H](CO)NC(=O)[C@@H](NC(=O)[C@@H](NC(=O)[C@@H](N)C(C)C)[C@@H](C)O)[C@@H](C)O)[C@@H](C)O)[C@@H](C)O)C(=O)N[C@@H](CCCNC(N)=O)C(=O)O [VTTSTRTYSLGSALX] (H-VTTSTRTYSLGSAL[Cit]-OH),9.6,847,,
CC(C)C[C@H](NC(=O)[C@H](C)NC(=O)[C@H](CO)NC(=O)CNC(=O)[C@H](CC(C)C)NC(=O)[C@H](CO)NC(=O)[C@H](Cc1ccc(O)cc1)NC(=O)[C@@H](NC(=O)[C@H](CCCNC(N)=O)NC(=O)[C@@H](NC(=O)[C@H](CO)NC(=O)[C@@H](NC(=O)[C@@H](NC(=O)[C@@H](N)C(C)C)[C@@H](C)O)[C@@H](C)O)[C@@H](C)O)[C@@H](C)O)C(=O)N[C@@H](CCCNC(=N)N)C(=O)O [VTTSTXTYSLGSALR] (H-VTTST[Cit]TYSLGSALR-OH),7.2,1480,,
CC[C@H](C)[C@H](NC(=O)[C@H](CCCCN)NC(=O)[C@H](CC(N)=O)NC(=O)[C@H](CCC(N)=O)NC(=O)[C@H](CCC(N)=O)NC(=O)[C@H](CCC(=O)O)NC(=O)[C@H](CC(C)C)NC(=O)[C@H](Cc1ccccc1)NC(=O)[C@H](CCCNC(N)=O)NC(=O)[C@@H](N)C(C)C)C(=O)N[C@@H](CC(C)C)C(=O)N[C@@H](CC(C)C)C(=O)N[C@@H](C)C(=O)N[C@@H](CCC(=O)O)C(=O)N[C@@H](CC(C)C)C(=O)O [VXFLEQQNKILLAEL],7.8,6590,,

# Other lines, results leading:
"IC50 [1, 3] [nM]","IC50 [2, 4] [nM]","IC50 [1, 5] [nM]","IC50 [2, 6] [nM]",Compound
,,3.4,860,CC(C)C[C@H](NC(=O)[C@H](C)NC(=O)[C@H](CO)NC(=O)CN)C(=O)N[C@@H](CCCNC(=N)N)C(=O)N1CCC[C@H]1C(=O)N[C@@H](CO)C(=O)N[C@H](C(=O)N[C@@H](CO)C(=O)N[C@@H](CCCNC(=N)N)C(=O)N[C@@H](CO)C(=O)N[C@@H](CC(C)C)C(=O)N[C@@H](Cc1ccc(O)cc1)C(=O)N[C@@H](C)C(=O)N[C@@H](CO)C(=O)O)[C@@H](C)O [Vimentin 41 WT]
,,290,1050,CC(C)C[C@H](NC(=O)[C@H](CO)NC(=O)[C@H](CCCNC(=N)N)NC(=O)[C@H](CO)NC(=O)[C@@H](NC(=O)[C@H](CO)NC(=O)[C@@H]1CCCN1)[C@@H](C)O)C(=O)N[C@@H](Cc1ccc(O)cc1)C(=O)N[C@@H](C)C(=O)N[C@@H](CO)C(=O)N[C@@H](CO)C(=O)N1CCC[C@H]1C(=O)NCC(=O)NCC(=O)N[C@H](C(=O)O)C(C)C [Vimentin 46 WT]
,,75,6110,CC(C)C[C@H](NC(=O)[C@@H](N)CO)C(=O)N[C@@H](Cc1ccc(O)cc1)C(=O)N[C@@H](C)C(=O)N[C@@H](CO)C(=O)N[C@@H](CO)C(=O)N1CCC[C@H]1C(=O)NCC(=O)NCC(=O)N[C@H](C(=O)N[C@@H](Cc1ccc(O)cc1)C(=O)N[C@@H](C)C(=O)N[C@H](C(=O)N[C@@H](CCCNC(=N)N)C(=O)N[C@@H](CO)C(=O)O)[C@@H](C)O)C(C)C [Vimentin 51 WT]
,,358,596,CC(C)C[C@H](NC(=O)[C@H](CO)NC(=O)[C@H](Cc1ccccc1)NC(=O)[C@H](CC(=O)O)NC(=O)[C@@H](NC(=O)[C@H](CO)NC(=O)[C@H](CC(=O)O)NC(=O)[C@H](CCC(N)=O)NC(=O)[C@H](CC(C)C)NC(=O)[C@H](CC(C)C)NC(=O)[C@H](CCCNC(=N)N)NC(=O)[C@@H](NC(=O)CN)C(C)C)C(C)C)C(=O)N[C@@H](C)C(=O)N[C@@H](CC(=O)O)C(=O)O [Vimentin 76 WT]
